# How the values were obtained:
# [1] = tested on: NCl-H460 (large cell bronchial carcinoma, ATCC HTB-177); assay: Cytotoxicity, crystal violet assay, NCl-H460; assay type: cell-based, human
# Procedure: (§1) For the determination of cytotoxicity two different assays were used depending on the characteristics of the treated cells. For adherently growing cells the crystal violet assay^[b] was used. Instead of complete removal of the conditioned culture medium, 100 μl of fresh medium, containing a two-fold higher concentration of the test compounds than the desired final concentration were added 2-3 days after seeding the cells at a density of about 5000 cells/well (100 μl).
# (§2) Eight different human cancer cell lines were treated according to the above general procedure for comparative determination of cytotoxicity of bendamustine-HCl and bendamustine mofetil ester.
# [2] = tested on: U-937 (histocytic lymphoma, ATCC CRL-1593.2); assay: Cytotoxicity, MTT assay, U-937; assay type: cell-based, human
# Procedure: (§3) For loosely adherent cells and cells growing in suspension, the MTT-assay^[a] was used. Suspension cells were seeded at a density of 8000 cells/well (100 μl). In case of suspension cells, 100 μl of medium, containing the test compounds bendamustine HCl and bendamustine mofetil ester (or bendamustine methyl ester), were added directly after seeding of the cells. Loosely adherent cells were seeded at a density of 5000 cells/well (100 μl) and treated as described for the crystal violet assay.
# (§4) In all cases, one plate was measured at the time, when substances were added (t0-plate). The MTT-(2.5 mg/ml) solution (PBS) was freshly prepared for each measurement. 20 μl of this solution were added per well (100 μl) of each plate at subsequent days. Incubation period with MTT was 3 hours at 37° C. After incubation, the plates were centrifuged, and the medium was removed to a residual volume of 50 μl per well. Then, 100 μl of DMSO were added, and the plates were shaken for 1 hour. Absorbance was measured at a wavelength of 580 nm.
# as §2
# [3] = tested on: human malignant tumour cell lines; assay: Comparative cytotoxicity, all cell lines investigated; assay type: cell-based; conditions: against all human malignant tumour cell lines investigated (Table 1)
# Procedure: as §1, §3
# In all cases, one plate was measured at the time, when substances were added (t0-plate). The MTT-(2.5 mg/ml) solution (PBS) was freshly prepared for each measurement. 20 μl of this solution were added per well (100 μl) of each plate at subsequent days. Incubation period with MTT was 3 hours at 37° C. […] Absorbance was measured at a wavelength of 580 nm. […]
# [4] = tested on: SK-ES1 (Ewing sarcoma, ATCC HTB-86); assay: Cytotoxicity, MTT assay, SK-ES1; assay type: cell-based, human
# Procedure: as §3, §4, §2
# [5] = tested on: Capan-1 (pancreatic carcinoma, ATCC HTB-80); assay: Cytotoxicity, crystal violet assay, Capan-1; assay type: cell-based, human
# Procedure: as §1, §2
# [6] = tested on: MG-63 (osteosarcoma, ATCC CRL-1427); assay: Cytotoxicity, crystal violet assay, MG-63; assay type: cell-based, human
# Procedure: as §1, §2
# [7] = tested on: LnCap clone FGC (prostate cancer, metastasis of a subclavicular lymph node, ATCC CRL-1740); assay: Cytotoxicity, MTT assay, LnCap clone FGC; assay type: cell-based, human
# Procedure: as §3, §4, §2
# [8] = tested on: Jurkat (acute T-cell leukemia, ATCC TIB-152); assay: Cytotoxicity, MTT assay, Jurkat; assay type: cell-based, human
# Procedure: as §3, §4, §2
# [9] = tested on: HEL92.1.7 (erythroleukemia, ATCC TIB-180); assay: Cytotoxicity, MTT assay, HEL92.1.7; assay type: cell-based, human
# Procedure: as §3, §4, §2
# [10] = Homo sapiens, long-term exposure (96 h), MTT assay, errors as 95% confidence intervals
structure (smiles),measurement,setting,value
"Cn1c(CCCC(=O)OCCN2CCOCC2)nc2cc(N(CCCl)CCCl)ccc21 [bendamustine mofetil ester, 2-morpholinoethyl 4-(5-(bis(2-chloroethyl)amino)-1-methyl-1H-benzo[d]imidazol-2-yl)butanoate]",IC50,"[1]; Homo sapiens, NCl-H460, long-term exposure (96 h), crystal violet assay, errors as 95% confidence intervals",8.6 ± 0.6 µM
same,ratio (IC50 bendamustine-HCl / IC50 bendamustine mofetil ester),"[1]; NCl-H460, 96 h",10.4
same,IC50,"[2]; Homo sapiens, U-937, long-term exposure (96 h), MTT assay, errors as 95% confidence intervals",4.2 ± 0.9 µM
same,ratio (IC50 bendamustine-HCl / IC50 bendamustine mofetil ester),"[2]; U-937, 96 h",21.9
same,cytotoxicity compared to bendamustine-HCl,[3],remarkably enhanced cytotoxicity
same,IC50,"[4]; Homo sapiens, SK-ES1, long-term exposure (96 h), MTT assay, errors as 95% confidence intervals",0.9 ± 0.2 µM
same,ratio (IC50 bendamustine-HCl / IC50 bendamustine mofetil ester),"[4]; SK-ES1, 96 h",12.2
same,ratio (IC50 bendamustine-HCl / IC50 bendamustine mofetil ester),"[5]; Capan-1, 96 h",19.4
same,IC50,"[5]; Homo sapiens, Capan-1, long-term exposure (96 h), crystal violet assay, errors as 95% confidence intervals",1.3 ± 0.3 µM
same,IC50,"[6]; Homo sapiens, MG-63, long-term exposure (96 h), crystal violet assay, errors as 95% confidence intervals",3.4 ± 0.7 µM
same,ratio (IC50 bendamustine-HCl / IC50 bendamustine mofetil ester),"[6]; MG-63, 96 h",16.2
same,ratio (IC50 bendamustine-HCl / IC50 bendamustine mofetil ester),[7]; 96 h,34.1
same,IC50,[7]; [10],2.1 ± 0.6 µM
same,ratio (IC50 bendamustine-HCl / IC50 bendamustine mofetil ester),[8]; 96 h,10.1
same,IC50,[8]; [10],4.2 ± 0.3 µM
same,ratio (IC50 bendamustine-HCl / IC50 bendamustine mofetil ester),"[9]; HEL92.1.7, 96 h",24.7
same,IC50,"[9]; Homo sapiens, HEL 92.1.7, HEL92.1.7, long-term exposure (96 h), MTT assay, errors as 95% confidence intervals",3.4 ± 0.4 µM

# Reference: patent publication US8809549B2, “Esters of bendamustine and related compounds, and medical use thereof” (Arevipharma GmbH, priority 2012, dated 2014)
